The source of these data is patent EP4714952A1, “COMPOUND AND USE THEREOF” (Autobio Group Co., Ltd., priority 2023, dated 2025).

One series addresses CYP2C9 (Homo sapiens, UniProt P11712). As to the kind of experiment: In vitro CYP inhibition in human liver microsomes, CYP2C9.
The target in the next series is CYP3A-M (Homo sapiens, UniProt P08684). The experiment in a line: In vitro CYP inhibition in human liver microsomes, CYP3A-M. As to conditions: human liver microsomes.
The next series addresses CYP1A2 (Homo sapiens, UniProt P05177). As to the kind of experiment: In vitro CYP inhibition in human liver microsomes, CYP1A2.
Another series concerns the target CYP2C19 (Homo sapiens, UniProt P33261). As to the kind of experiment: In vitro CYP inhibition in human liver microsomes, CYP2C19.
The target of the next series is CYP2D6 (Homo sapiens, UniProt P10635). As to the kind of experiment: In vitro CYP inhibition in human liver microsomes, CYP2D6.
Chain of CYP2D6 (P10635 whole entry): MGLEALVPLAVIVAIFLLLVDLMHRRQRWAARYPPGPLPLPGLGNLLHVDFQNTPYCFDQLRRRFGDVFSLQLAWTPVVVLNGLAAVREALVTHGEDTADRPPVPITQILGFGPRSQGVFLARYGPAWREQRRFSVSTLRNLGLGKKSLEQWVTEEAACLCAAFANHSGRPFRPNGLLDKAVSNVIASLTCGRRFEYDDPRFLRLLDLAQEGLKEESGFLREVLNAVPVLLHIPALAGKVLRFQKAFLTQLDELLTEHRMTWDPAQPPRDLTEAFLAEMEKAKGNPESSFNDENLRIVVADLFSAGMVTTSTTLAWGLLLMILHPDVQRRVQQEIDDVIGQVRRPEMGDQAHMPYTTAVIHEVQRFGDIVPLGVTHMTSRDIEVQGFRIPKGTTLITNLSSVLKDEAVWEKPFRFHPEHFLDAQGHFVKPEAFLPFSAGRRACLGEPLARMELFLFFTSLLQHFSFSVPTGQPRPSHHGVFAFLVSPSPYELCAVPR
In the next series the target is T1, PDE3A (Homo sapiens, UniProt Q14432).
T1 construct: purchased BPS
T1 sequence (Q14432 whole entry): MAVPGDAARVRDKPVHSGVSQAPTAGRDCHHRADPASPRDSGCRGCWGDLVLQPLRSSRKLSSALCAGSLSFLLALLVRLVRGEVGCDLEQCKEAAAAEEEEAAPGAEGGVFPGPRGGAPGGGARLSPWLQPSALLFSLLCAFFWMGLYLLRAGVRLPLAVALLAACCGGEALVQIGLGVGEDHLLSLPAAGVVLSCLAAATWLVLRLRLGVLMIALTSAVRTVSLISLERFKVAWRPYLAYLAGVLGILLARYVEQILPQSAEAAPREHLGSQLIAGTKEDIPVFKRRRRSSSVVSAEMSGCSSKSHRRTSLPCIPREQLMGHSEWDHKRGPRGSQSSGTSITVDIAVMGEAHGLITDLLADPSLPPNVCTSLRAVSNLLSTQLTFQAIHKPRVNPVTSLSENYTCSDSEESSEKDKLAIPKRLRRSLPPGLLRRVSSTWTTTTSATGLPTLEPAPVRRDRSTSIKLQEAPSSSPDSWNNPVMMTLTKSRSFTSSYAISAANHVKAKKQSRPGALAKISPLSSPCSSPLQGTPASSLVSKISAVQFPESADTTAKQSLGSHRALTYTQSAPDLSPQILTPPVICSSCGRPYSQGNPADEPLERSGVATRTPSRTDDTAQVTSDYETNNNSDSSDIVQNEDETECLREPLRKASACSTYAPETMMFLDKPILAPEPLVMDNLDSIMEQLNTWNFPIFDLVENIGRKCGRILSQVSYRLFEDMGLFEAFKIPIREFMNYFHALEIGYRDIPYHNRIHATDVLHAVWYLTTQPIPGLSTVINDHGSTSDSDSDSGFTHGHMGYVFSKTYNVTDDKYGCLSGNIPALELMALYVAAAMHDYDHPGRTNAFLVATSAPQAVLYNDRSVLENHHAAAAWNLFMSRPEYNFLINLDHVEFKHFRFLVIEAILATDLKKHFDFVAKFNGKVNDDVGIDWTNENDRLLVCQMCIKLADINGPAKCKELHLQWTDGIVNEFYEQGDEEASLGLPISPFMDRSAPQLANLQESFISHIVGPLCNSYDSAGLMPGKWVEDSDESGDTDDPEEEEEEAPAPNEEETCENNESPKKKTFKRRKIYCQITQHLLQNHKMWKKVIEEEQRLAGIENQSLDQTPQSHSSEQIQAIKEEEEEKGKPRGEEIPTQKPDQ
As to the kind of experiment: In vitro inhibitory effect on PDE3A enzyme (AMP-Glo assay). Format: biochemical. Conditions: AMP-Glo Assay Kit, substrate cAMP, 23°C, 60 minutes; read-out: PDE3A (IC50).

The target in another series is T2, PDE4B1 (Homo sapiens, UniProt Q07343).
T2 construct: purchased Sigma
T2 sequence (Q07343 whole entry): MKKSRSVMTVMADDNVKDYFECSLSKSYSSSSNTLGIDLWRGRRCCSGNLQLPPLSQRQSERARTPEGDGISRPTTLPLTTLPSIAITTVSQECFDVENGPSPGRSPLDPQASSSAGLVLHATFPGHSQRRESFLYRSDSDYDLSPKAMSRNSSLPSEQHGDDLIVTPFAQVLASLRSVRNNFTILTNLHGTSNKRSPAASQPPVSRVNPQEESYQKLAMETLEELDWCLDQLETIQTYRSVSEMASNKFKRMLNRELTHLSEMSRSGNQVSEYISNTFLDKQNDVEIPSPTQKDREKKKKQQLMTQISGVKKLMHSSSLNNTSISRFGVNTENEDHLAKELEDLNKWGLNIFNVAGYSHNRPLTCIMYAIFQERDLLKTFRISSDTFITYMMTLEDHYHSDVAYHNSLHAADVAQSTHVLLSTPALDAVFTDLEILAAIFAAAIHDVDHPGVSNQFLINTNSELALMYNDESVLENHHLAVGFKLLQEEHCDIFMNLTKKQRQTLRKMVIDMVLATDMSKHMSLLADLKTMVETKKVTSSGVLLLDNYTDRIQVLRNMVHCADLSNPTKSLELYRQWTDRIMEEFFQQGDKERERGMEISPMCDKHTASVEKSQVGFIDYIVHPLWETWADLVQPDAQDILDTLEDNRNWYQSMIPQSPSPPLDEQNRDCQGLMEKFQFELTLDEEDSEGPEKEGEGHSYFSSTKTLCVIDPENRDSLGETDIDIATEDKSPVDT
The experiment in a line: In vitro inhibitory effect on PDE4B1 enzyme (AMP-Glo assay). Format: biochemical. As to conditions: AMP-Glo Assay Kit, substrate cAMP, 23°C, 10 minutes; read-out: PDE4B1 (IC50).

SMILES strings stand for the structures.

Chain of CYP1A2 (P05177 whole entry): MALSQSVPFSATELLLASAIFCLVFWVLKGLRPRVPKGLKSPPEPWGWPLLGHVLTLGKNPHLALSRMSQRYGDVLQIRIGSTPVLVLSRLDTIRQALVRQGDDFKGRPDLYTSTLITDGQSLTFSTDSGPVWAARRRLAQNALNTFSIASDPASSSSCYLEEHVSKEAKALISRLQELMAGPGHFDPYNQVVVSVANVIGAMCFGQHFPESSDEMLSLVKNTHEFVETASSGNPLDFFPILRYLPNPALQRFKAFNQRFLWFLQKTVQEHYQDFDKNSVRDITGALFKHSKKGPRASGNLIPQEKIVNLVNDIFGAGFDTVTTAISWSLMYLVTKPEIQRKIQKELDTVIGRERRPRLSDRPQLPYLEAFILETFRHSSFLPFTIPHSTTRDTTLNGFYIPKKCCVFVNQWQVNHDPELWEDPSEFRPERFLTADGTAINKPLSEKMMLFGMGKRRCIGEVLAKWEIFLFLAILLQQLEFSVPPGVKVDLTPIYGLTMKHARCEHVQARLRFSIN
Chain of CYP2C9 (P11712 whole entry): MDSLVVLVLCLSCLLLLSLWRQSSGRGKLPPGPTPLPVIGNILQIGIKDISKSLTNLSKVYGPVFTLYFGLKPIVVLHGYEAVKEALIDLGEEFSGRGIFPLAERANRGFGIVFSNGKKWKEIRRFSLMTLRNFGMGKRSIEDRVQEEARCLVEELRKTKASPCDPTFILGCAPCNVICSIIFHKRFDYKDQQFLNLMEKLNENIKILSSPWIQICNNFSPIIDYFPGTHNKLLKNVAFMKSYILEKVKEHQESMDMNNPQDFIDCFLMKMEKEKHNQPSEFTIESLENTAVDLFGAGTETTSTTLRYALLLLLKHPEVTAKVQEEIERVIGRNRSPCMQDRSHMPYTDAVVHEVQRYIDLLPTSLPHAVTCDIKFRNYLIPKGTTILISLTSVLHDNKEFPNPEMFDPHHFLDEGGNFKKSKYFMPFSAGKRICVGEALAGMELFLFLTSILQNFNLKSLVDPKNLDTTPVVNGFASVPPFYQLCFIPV
Chain of CYP2C19 (P33261 whole entry): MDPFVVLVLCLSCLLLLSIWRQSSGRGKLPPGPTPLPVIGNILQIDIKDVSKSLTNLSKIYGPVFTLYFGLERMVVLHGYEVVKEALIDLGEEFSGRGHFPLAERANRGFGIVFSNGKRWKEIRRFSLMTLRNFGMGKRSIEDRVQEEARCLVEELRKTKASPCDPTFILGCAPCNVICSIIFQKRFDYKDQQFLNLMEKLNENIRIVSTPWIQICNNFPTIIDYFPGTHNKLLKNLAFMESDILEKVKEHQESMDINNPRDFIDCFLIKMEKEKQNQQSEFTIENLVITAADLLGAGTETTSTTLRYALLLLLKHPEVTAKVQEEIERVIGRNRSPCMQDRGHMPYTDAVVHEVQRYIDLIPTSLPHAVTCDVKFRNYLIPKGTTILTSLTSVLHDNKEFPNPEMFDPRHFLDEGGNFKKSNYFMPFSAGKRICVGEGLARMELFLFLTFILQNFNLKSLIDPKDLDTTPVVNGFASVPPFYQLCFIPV
Chain of CYP3A-M (P08684 2-503): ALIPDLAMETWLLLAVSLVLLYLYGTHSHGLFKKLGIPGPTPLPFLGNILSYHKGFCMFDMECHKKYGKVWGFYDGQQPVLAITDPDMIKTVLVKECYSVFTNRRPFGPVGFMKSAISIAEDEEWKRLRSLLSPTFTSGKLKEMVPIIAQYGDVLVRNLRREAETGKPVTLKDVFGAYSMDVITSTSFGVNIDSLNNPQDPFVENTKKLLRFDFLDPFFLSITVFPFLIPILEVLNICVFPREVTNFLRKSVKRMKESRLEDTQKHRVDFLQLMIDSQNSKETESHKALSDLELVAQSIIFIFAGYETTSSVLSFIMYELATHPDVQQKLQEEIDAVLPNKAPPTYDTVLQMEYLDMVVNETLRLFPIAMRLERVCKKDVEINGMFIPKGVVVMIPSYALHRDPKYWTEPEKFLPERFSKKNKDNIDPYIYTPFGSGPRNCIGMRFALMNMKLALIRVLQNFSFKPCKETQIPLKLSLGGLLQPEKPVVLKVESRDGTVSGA
Description for CYP1A2: (§1) 1.1 Working solutions (100×) of sample compounds and standard inhibitors were prepared.
(§2) 1.2 Microsomes were removed from a -80°C refrigerator, thawed on ice, labeled with the date, and stored in the refrigerator immediately after use.
(§3) 1.3 20 µL of substrate solution was added to the corresponding wells, while 20 µL of PB (phosphate buffer) was added to the blank wells.
(§4) 1.4 2 µL of sample compound solution and positive control working solution were added to the appropriate wells, while 2 µL of solvent was added to inhibitor-free wells and blank wells.
(§5) 1.5 HLM (human liver microsome) working solution was prepared.
(§6) 1.6 158 µL of HLM working solution was added to all wells of the plate.
(§7) 1.7 The plate was pre-incubated in a 37°C water bath for approximately 10 minutes.
(§8) 1.8 NADPH (nicotinamide adenosine denucleotide hydro-phosphoric acid, i.e. reduced form coenzyme II) cofactor solution was prepared.
(§9) 1.9 20 µL of NADPH cofactor solution was added to all incubation wells.
(§10) 1.10 The solution was mixed and the plate was placed in 37°C water bath to incubate CYP for 10 minutes.
(§11) 1.11 At designated time points, the reaction was terminated by adding 400 µL of cold stopping solution.
(§12) 1.13 200 µL of the supernatant was transferred into 100 µL of HPLC-grade water and vortexed for 10 minutes.
(§13) 1.14 Samples were subjected to LC/MS/MS analysis.
(§14) Concentration-inhibition percentage curves of the control compound and test compounds were plotted using XL Fit or SigmaPlot, followed by nonlinear regression analysis.
(§15) IC50 values were determined using a 3 or 4 parameter logistic equation.
Description for CYP2C19: as §1, §2, §3, §4, §5, §6, §7, §8, §9, §10, §11, §12, §13, §14, §15
Description for CYP2C9: as §1, §2, §3, §4, §5, §6, §7, §8, §9, §10, §11, §12, §13, §14, §15
Description for CYP2D6: as §1, §2, §3, §4, §5, §6, §7, §8, §9, §10, §11, §12, §13, §14, §15
Description for CYP3A-M: as §1, §2, §3, §4, §5, §6, §7, §8, §9, §10, §14, §15

On to `CCOc1cc2c(cc1OC)-c1cc(N(CCNC(=O)NOC)c3c(C)cc(C)cc3C)nc(=O)n1CC2` [Compound 86], for which the IC50 is 3.13 µM against CYP2C9; above 50 µM against CYP1A2; 29.1 µM against CYP2C19; 29.7 µM against CYP2D6; 0.034 nM on PDE3A; 0.0079 µM on PDE4B1. At CYP3A-M, it took 1.63 µM to reach half-maximal inhibition (IC50 at 10 min).

Turning to `COc1cc2c(cc1OC)-c1c/c(=N\c3c(C)cc(C)cc3C)n(CCNC(N)=O)c(=O)n1CC2` [Ensifentrine, reference compound], the IC50 at CYP2C9 is 3.52 µM; at CYP1A2, above 50 µM; against CYP2C19, 23.2 µM; against CYP2D6 it was 41.5 µM; on PDE3A, 0.17 nM; on PDE4B1, 0.102 µM. This compound gave an IC50 at 10 min against CYP3A-M of 8.6 µM.

Regarding `CCOc1cc2c(cc1OC)-c1cc(N(CCNC(N)=O)c3c(C)cc(C)cc3C)nc(=O)n1CC2` [Compound 84], the IC50 against CYP2C9 was 4.52 µM; against CYP1A2, above 50 µM; against CYP2C19, above 50 µM; at CYP2D6, above 50 µM; at PDE3A it was 0.008 nM; on PDE4B1, 0.0075 µM. This compound also showed an IC50 at 10 min against CYP3A-M above 50 µM.
